Measurements as given in patent US20060222657A1, “Polypeptide transduction and fusogenic peptides” (priority 2003, published 2006).
“Also recorded” adds a separate entry of the source. Where no end group is shown, it is not given here. [ ]: non-standard residue; d: D form.

How the values were obtained:
tex.loxP.EG cells [1] = assay: TAT-Cre mediated recombination of lox-stop-lox eGFP reporter, flow cytometry of live cells; type: cell-based, murine; conditions: for effect on TAT-Cre recombination (endocytosis inhibitors): pretreated 30′ in serum-free media, then TAT-Cre for 1 h, replated overnight; for effect on TAT-Cre recombination (free glycosaminglyans): incubated with TAT-Cre 1 hr in serum-free media, eGFP after 16 hr
tex.loxP.EG T cells = assay: Cell surface binding of TAT-Cre; type: cell-based, murine; conditions: free glycosaminglyans in increasing concentrations, 1 hr, serum-free media
Procedure: Full-length TAT protein has previously been reported to bind strongly to cell surface heparin sulfate proteoglycans. […] To determine whether cell surface binding was a necessary and prerequisite step for TAT-Cre internalization, cells were incubated with TAT-Cre and increasing concentrations of free glycosaminglyans for 1 hr in serum-free media, then washed and replated the cells in complete media, and measured eGFP expression after 16 hr.

cell surface = conditions: increasing concentrations of polyanions; cited from earlier work
3T3 loxP.lacZ cells = assay: TAT-Cre recombination of lacZ reporter, in situ β-galactosidase staining; type: cell-based; conditions: 100 μM and 200 μM chloroquine with sub-threshold TAT-Cre, overnight, DMEM +10% serum
Procedure: 3T3 loxP.lacZ cells containing a lacZ reporter expressed after recombination were grown in DMEM (Invitrogen) containing 10% fetal bovine serum. Following recombination cells expressing lacZ were assayed by in situ beta-galactosidase staining (Stratagene).
To determine the effect of endosomal release by chloroquine, 3T3 loxP.lacZ cells were treated with 0. 25 μM TAT-Cre and 0-200 μM chlorocguine (Sigma) in DMEM +10% FBS overnight. LacZ expression was measured by in situ β-galactosidase staining (Stratagene).

mammalian cells = assay: TAT-Cre transduction efficiency and cytotoxicity with endosomal release agents (summary statement); type: cell-based
3T3 LacZ reporter cells = assay: Cytotoxicity (loss of cells) of chloroquine treatment; type: cell-based; conditions: effective dose of chloroquine; multiple several cell lines
Procedure: To recombine DNA and induce eGFP expression, TAT-Cre must escape from macropinosomes. […] Therefore to enhance release from macropinosomes, 3T3 LacZ reporter cells were treated with a sub-threshold dose of TAT-Cre in combination with increasing concentrations of chloroquine, an ion-transporting ATPase inhibitor that prevents vesicle acidification leading to endosomal disruption (FIG. 5a).

cells = conditions: cited from earlier work
tex.loxP.EG cells [2] = assay: TAT-Cre-488 and FM4-64 internalization by flow cytometry; type: cell-based, murine; conditions: nystatin 30′ pretreatment, then TAT-Cre-488 and FM4-64 for 1 h
Procedure: Recombination experiments. To measure the rate of TAT-Cre internalization, tex.loxP.EG cells were plated at 5×10^5 cells/well and treated with 0.5 μM TAT-Cre in RPMI +/− 10% FBS. After each time period, cells were trypsinized for 2′, washed and replated into complete media overnight. For all drug treatments [0-50 μg/mL chondroitin sulfate A, B, or C (Sigma), 0-25 μg/mL heparin (Sigma), 0-100 μg/mL nystatin (Fluka), 0-5 mM […] (Sigma), 0-5 mM amiloride (Sigma) and 0-10 μM cytochalasin D (Sigma)], cells were washed and pretreated for 30′ in serum-free media before the addition of TAT-Cre. Cells were maintained for 1 h in the presence of inhibitors (except for cyclodextrin) aftex which they were washed twice and replated overnight in media containing serum. To measure the effect of nystatin on TAT-Cre internalization, tex.loxP.EG cells were pretreated as described with 10, 25 or 50 μg/mL nystatin for 30′ before the addition of 2 μM TAT-Cre-488 and […] FM4-64. After 1 h, the cells were trypsinized and the fluorescence measured by flow cytometry. […] LacZ expression was measured by in situ β-galactosidase staining (Stratagene). For peptide treatments, tex.loxP.EG cells maintained in RPMI +10% FBS were incubated TAT-Cre and either […] HA2-tat or tat peptide for 16-20 h after which eGFP expression was measured by flow cytometry. […]

[3] = tested on: viral promoter within cells in culture; conditions: cited from earlier work

**Q.** Which “effect on TAT-Cre recombination (endocytosis inhibitors)” value (from here on “effect … (endocytosis inhibitors)”) (tex.loxP.EG cells [1]) does the source give for C=C1[C@@H](C)[C@H]2[C@H](Cc3ccccc3)NC(=O)[C@]23[C@H](OC(C)=O)/C=C/[C@@](C)(O)C(=O)[C@@H](C)C/C=C/[C@H]3[C@@H]1O [cytochalasin D] here?
**A.** Its value is “dose-dependent inhibition of TAT-Cre transduction into the cells and lack of recombination; also recorded: dose-dependent decrease in recombination”.

**Q.** Which “effect on surface binding of TAT-Cre” value (tex.loxP.EG T cells) does the source give for heparin here?
**A.** The value was “prevented surface binding of TAT-Cre”.

**Q.** What about the “effect on intracellular accumulation of TAT” value (cell surface) of the same molecule?
**A.** The value was “competitively blocked”.

**Q.** What about the “effect on TAT-Cre recombination (free glycosaminglyans)” value (“effect … (free glycosaminglyans)” below) (tex.loxP.EG cells [1]) of the same molecule?
**A.** Its value is “strongly inhibited subsequent recombination”.

**Q.** For CCN(CC)CCCC(C)Nc1ccnc2cc(Cl)ccc12 (stereo not drawn) [chloroquine], which “effect on TAT-Cre recombination and LacZ expression” value (3T3 loxP.lacZ cells) is on record?
**A.** Its value is “significant increase in recombination and LacZ expression; also recorded: increases TAT-Cre recombination”.

**Q.** What about the cytotoxicity (mammalian cells) of the same molecule?
**A.** The cytotoxicity was “extensive cytotoxicity”.

**Q.** And the “effect on transduction efficiency of TAT-Cre” value (mammalian cells)?
**A.** Its value is “moderately increased transduction efficiency”.

**Q.** What about the cytotoxicity (3T3 LacZ reporter cells) of the same molecule?
**A.** The cytotoxicity was “extensive cytotoxicity”.

**Q.** Which “effect … (endocytosis inhibitors)” value (tex.loxP.EG cells [1]) does the source give for OC[C@H]1O[C@@H]2O[C@H]3[C@H](O)[C@@H](O)[C@@H](O[C@H]4[C@H](O)[C@@H](O)[C@@H](O[C@H]5[C@H](O)[C@@H](O)[C@@H](O[C@H]6[C@H](O)[C@@H](O)[C@@H](O[C@H]7[C@H](O)[C@@H](O)[C@@H](O[C@H]8[C@H](O)[C@@H](O)[C@@H](O[C@H]1[C@H](O)[C@H]2O)O[C@@H]8CO)O[C@@H]7CO)O[C@@H]6CO)O[C@@H]5CO)O[C@@H]4CO)O[C@@H]3CO [β-cyclodextrin] here?
**A.** The value was “dose-dependent inhibition of recombination”.

**Q.** With chondroitin sulfate B as the molecule, how does the “effect on surface binding of TAT-Cre” value (tex.loxP.EG T cells) read?
**A.** The value was “prevented surface binding of TAT-Cre”.

**Q.** And the “effect … (free glycosaminglyans)” value (tex.loxP.EG cells [1])?
**A.** Its value is “strongly inhibited subsequent recombination”.

**Q.** With FITKALGISYGRKKRR [TAT-(37-53)] as the molecule, how does the “cell internalization and nuclear localization” value (cells) read?
**A.** The value was “not able to transduce into cells”.

**Q.** With N=C(N)NC(=O)c1nc(Cl)c(N)nc1N [amiloride] as the molecule, how does the “effect … (endocytosis inhibitors)” value (tex.loxP.EG cells [1]) read?
**A.** The value was “dose-dependent inhibition of TAT-Cre transduction into the cells and lack of recombination; also recorded: dose-dependent decrease in recombination”.

**Q.** For “GRKKRRQRRR (G[dR][dK][dK][dR][dR][dQ][dR][dR][dR]) [TAT D-isomer peptide, control TAT peptide]”, which “effect of peptide on TAT-Cre recombination (in words)” value (tex.loxP.EG cells [1]) is on record?
**A.** The value was “only minor increases in recombination”.

**Q.** For dextran sulphate, which “effect on intracellular accumulation of TAT” value (cell surface) is on record?
**A.** The value was “competitively blocked”.

**Q.** For LGISYGRKKRRQRRRPPQ [TAT-(43-60)], which “cell internalization and nuclear localization” value (cells) is on record?
**A.** The value was “fully retained the ability for cell internalization and nuclear localization”.

**Q.** For “GRKKRRQ RRRPPQ (GRKKRRQRRRPPQ) [TAT-(48-60)]”, which “cell internalization and nuclear localization” value (cells) is on record?
**A.** Its value is “fully retained the ability for cell internalization and nuclear localization”.

**Q.** And the “transduction efficiency relative to other active peptide sequences” value (cells)?
**A.** The value was “more efficiently transduced than other active peptide sequences”.

**Q.** With C[C@@H]1[C@H](O)[C@@H](C)/C=C/C=C/CC/C=C/C=C/C=C/C=C/C(O[C@H]2O[C@H](C)[C@@H](O)[C@H](N)[C@@H]2O)CC2O[C@](O)(CC(O)C(O)CCC(O)CC(O)CC(O)CC(=O)O[C@H]1C)CC(O)C2C(=O)O (stereo partly drawn) [nystatin] as the molecule, how does the “FM4-64 endosomal dye internalization after nystatin treatment” value (tex.loxP.EG cells [2]) read?
**A.** Its value is “only a minor decrease”.

**Q.** And the “TAT-Cre-488 internalization after nystatin treatment” value (tex.loxP.EG cells [2])?
**A.** The value was “near complete loss of TAT-Cre-488 internalization”.

**Q.** What about the “effect of nystatin pretreatment on HA2-TAT-mediated enhancement of recombination” value (tex.loxP.EG cells [1]; nystatin 30′ in serum-free media, then TAT-Cre +/− 5 mM HA2-TAT for 1 h) of the same molecule?
**A.** The value was “inhibited HA2-TAT-mediated enhancement of recombination; also recorded: blocks the effect of HA2-TAT peptide”.

**Q.** And the “effect … (endocytosis inhibitors)” value (tex.loxP.EG cells [1])?
**A.** The value was “dose-dependent inhibition of recombination”.

**Q.** Which “effect on surface binding of TAT-Cre” value (tex.loxP.EG T cells) does the source give for chondroitin sulfate C here?
**A.** The value was “prevented surface binding of TAT-Cre”.

**Q.** What about the “effect … (free glycosaminglyans)” value (tex.loxP.EG cells [1]) of the same molecule?
**A.** Its value is “strongly inhibited subsequent recombination”.

B1: Cre: control Cre protein without TAT, expressed and purified under identical conditions (protein, UniProt P06956 1-343, looked up)
Recombinase cre: MSNLLTVHQNLPALPVDATSDEVRKNLMDMFRDRQAFSEHTWKMLLSVCRSWAAWCKLNNRKWFPAEPEDVRDYLLYLQARGLAVKTIQQHLGQLNMLHRRSGLPRPSDSNAVSLVMRRIRKENVDAGERAKQALAFERTDFDQVRSLMENSDRCQDIRNLAFLGIAYNTLLRIAEIARIRVKDISRTDGGRMLIHIGRTKTLVSTAGVEKALSLGVTKLVERWISVSGVADDPNNYLFCRVRKNGVAAPSATSQLSTRALEGIFEATHRLIYGAKDDSGQRYLAWSGHSARVGAARDMARAGVSIPEIMQAGGWTNVNIVMNYIRNLDSETGAMVRLLEDGD
**Q.** For B1, which “site specific recombination and eGFP expression after treatment” value (tex.loxP.EG cells [1]; tex.loxP.EG cells, eGFP measured 16-20 h later by flow cytometry) is on record?
**A.** Its value is “failed to undergo recombination and express eGFP”.

B2: TAT protein: HIV-1 transcriptional activator TAT protein, full length (protein)
chain: MEPVDPRLEPWKHPGSQPKTACTNCYCKKCCFHCQVCFITKALGISYGRKKRRQRRRPPQGSQTHQVSLSKQPTSQSRGDPTGPKE
modifications: transducing protein
**Q.** With B2 as the molecule, how does the “concentration sufficient to induce reporter activity” value ([3]; added to the culture media, no external perturbations) read?
**A.** Its value is 1 nM.

**Q.** And the “treatment time of maximal increase in biological activity” value ([3]; all cell types used)?
**A.** Its value is 5 minutes.
